Assay results taken from PMC4839630, “Investigation the Possibility of Using Peptides with a Helical Repeating Pattern of Hydro-Phobic and Hydrophilic Residues to Inhibit IL-10” (PLoS ONE, 2016).
Ends that are not written are not given here.

How the values were obtained:
IL-10R on U937 cells = assay: Surface staining of IL-10 receptor (PE anti-IL10R antibody) on U937 cells by flow cytometry; format: cell-based, human; conditions: U937 stimulated overnight with LPS (4×10^−3 μM); P1 4.5 μM, P2 4.1 μM, P3 5.6 μM, P4 4.2 μM; MFI by flow cytometry
Experimental: Human macrophage cell line U937 was maintained in complete RPMI 1640 media (Gibco) supplemented with 10% heat inactivated FCS, 100 U of penicillin/ml and 100 μg of streptomycin/ml and were cultured at 37°C with 5% CO2.
In vitro stimulation of U937 cells: 2–5×10^5 of U937 cells were cultured in 1 mL of RPMI with 10% human serum containing 100 U of ampicillin and 100 U of streptomycin. The U937 cells were either unstimulated or stimulated with 4×10^−3 μM of LPS (Sigma, Cat. L3024-5MG) overnight, in the presence of different concentration of P1, P2 or P3 or anti-IL-10 (10 μg/mL, ~0.3 μM) or anti-IL-10R (10 μg/mL, ~0.1 μM) antibodies. Supernatants were collected and stored at -80°C till use.
Surface staining of IL-10 receptor on U937 cell membrane: 2–5×10^5 of U937 cells were stained with PE conjugated anti-IL10R antibody for 30 minutes on ice, then washed with PBS with 2% of FCS and analysed with an Acuri flowcytometor (BD, USA) as described previously.

U937 cells = assay: 7-AAD cell-viability assay; format: cell-based, human; conditions: two independent assays, flow cytometry
Experimental: 7-AAD assay: 7-AAD Viability Staining Solution was purchased from eBioscience (Cat. 00–6993). Briefly, 5 μL of 7-aad were added to 5×10^5 cells for 5 minutes, and 7-aad staining was measured by a BD Accuri flow cytometry.
In order for a peptide to be useful as potential drug candidates, its cytotoxicity has to be low. We evaluated the cytotoxicity of P1 and P2 using 7-AAD cell-viability assay (S5 Fig).

IL-10R1 = target: T1, IL-10R1 (Homo sapiens, UniProt Q13651); assay: SPR binding to immobilised IL-10R1; conditions: SPR Biacore T100, CM5 chip, 1X PBS pH 7.4, 25°C, 10 μL/min; steady-state affinity analysis, three independent repeats
T1 construct: purchased Creative BioMart, USA IL10RA-212H
T1 sequence (Q13651 22-578): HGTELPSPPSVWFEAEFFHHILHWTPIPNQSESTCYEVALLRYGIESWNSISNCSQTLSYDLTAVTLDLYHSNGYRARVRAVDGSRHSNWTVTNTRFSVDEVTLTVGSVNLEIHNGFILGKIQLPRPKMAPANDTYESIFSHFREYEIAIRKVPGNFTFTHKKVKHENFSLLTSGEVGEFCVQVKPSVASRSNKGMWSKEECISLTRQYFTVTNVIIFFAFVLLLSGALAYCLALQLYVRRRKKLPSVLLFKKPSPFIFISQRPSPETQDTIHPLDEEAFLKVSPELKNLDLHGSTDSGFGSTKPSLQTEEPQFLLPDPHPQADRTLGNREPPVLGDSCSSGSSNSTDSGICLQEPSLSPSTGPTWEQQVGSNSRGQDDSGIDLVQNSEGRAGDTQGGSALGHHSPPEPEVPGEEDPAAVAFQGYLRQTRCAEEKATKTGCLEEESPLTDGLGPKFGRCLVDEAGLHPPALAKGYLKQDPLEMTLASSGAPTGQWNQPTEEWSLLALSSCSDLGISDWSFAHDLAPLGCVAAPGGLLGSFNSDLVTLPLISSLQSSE

IL-10 = IL-10 (Homo sapiens, UniProt P22301); assay: SPR binding to immobilised IL-10; parameters: purchased ebioscience BMS/346; conditions: SPR Biacore T100, CM5 chip, 1X PBS pH 7.4, 25°C, 10 μL/min; steady-state affinity analysis, three independent repeats
MC/9 cells = assay: MC/9 cell proliferation, MTT assay; format: cell-based, mouse; conditions: 5×10^−5 μM IL-10, 1×10^4 cells, 48 h, media with 2×10^−5 μM IL4
Experimental: Murine mast cell MC/9 cell line was purchased from ATCC, USA and cultured following the protocols in the product sheets. Briefly, MC/9 cells were cultured in complete RPMI 1640 media (Gibco) supplemented with 10% heat inactivated fetal calf serum (FCS), 100 U of penicillin/ml and 100 μg of streptomycin/ml and were cultured at 37°C with 5% CO2 and 5 ng of murine IL-4 or 1 ng of human IL-10 as recommended by ATCC, with or without adding P1, P2 or P3 respectively. MC/9 cell proliferation was determined by MTT assay (purchased from ATCC, USA) following the instruction of manufacturer.
Mouse mast cell line MC/9 growth is IL-10 dependent. We therefore investigated whether P1 or P2 is able to prevent IL-10 mediated MC/9 cell growth. MC/9 cells were cultured at different numbers for 48 hours and cell proliferation was measured by MTT assay, which measures the MC/9 cell proliferation. […] Thus, cell number of 1×10^4 was selected in the assay.

Lipopolysaccharide [LPS] was tested, and the “binding of PE anti-IL-10R antibody (clone 3F9) to IL-10R on U937 cells” value (IL-10R on U937 cells) was “More antibody binds to IL-10R1 after LPS stimulation, and is positively correlated with the dose of LPS”.

In the case of FFRRFFRRFFRRFFRR [P2], the “cell death, 7-AAD (in words)” value (U937 cells) is reported as “there is no significant difference for cell death in the presence or absence of P1 or P2”.

FFKKFFKKFFKKFFKK [P1] was tested, and the Kd (IL-10R1) was 16 ± 1.95 µM, the “cell death, 7-AAD (in words)” value (U937 cells) was “there is no significant difference for cell death in the presence or absence of P1 or P2” and the Kd (IL-10) was 8.94 ± 0.37 µM.

B1: IL-10: Human IL10 purchased from ebioscience (Cat. No: BMS/346) (protein)
chain: SPGQGTQSENSCTHFPGNLPNMLRDLRDAFSRVKTFFQMKDQLDNLLLKESLLEDFKGYLGCQALSEMIQFYLEEVMPQAENQDPDIKAHVNSLGENLKTLRLRLRRCHRFLPCENKSKAVEQVKNAFNKLQEKGIYKAMSEFDIFINYIEAYMTMKIRN
In the case of B1, the “increase in MC/9 cell proliferation” value (MC/9 cells) is reported as “approximately 133%”.
